Measurements from ChEMBL document CHEMBL1133769, “Novel inhibitors of DNA gyrase: 3D structure based biased needle screening, hit validation by biophysical methods, and 3D guided optimization. A promising alternative to random screening” (J Med Chem, 2000).

Biological target: DNA gyrase (Staphylococcus aureus) (UniProt P0A0K8+P20831)
Description: Maximal noneffective concentration for inhibition of DNA gyrase using supercoiling assay.

| MNEC [µg/mL] | Compound |
| --- | --- |
| 31 | NC(=O)Oc1cc([N+](=O)[O-])ccc1CSCc1ccc(Cl)c(Cl)c1 |
| 0.25 | Cc1cc(=O)oc2cc(SCc3n[nH]c4cccc(OCc5ccccc5)c34)ccc12 |
| 16 | OC(CCCCl)c1cc2ccccc2[nH]1 (stereo not given) |
| 8 | c1ccc(-c2[nH]nc3ccccc23)cc1 |
| 31 | CSc1nc(N)nc(SCCN2CCOCC2)n1 |
| 31 | Cc1[nH]c2ncnc(Cl)c2c1C |
| 10 | Cc1csc(NS(=O)(=O)c2ccc(F)cc2F)c1C(N)=O |
| 63 | O=[N+]([O-])c1ccc2[nH]nc(-c3ccccc3)c2c1 |
| 0.03 | Cc1cc(=O)oc2cc(SCc3n[nH]c4cccc(OCc5ccc(C(C)(C)C)cc5)c34)ccc12 |
| 8 | Cc1cc(=O)oc2cc(SCc3n[nH]c4ccccc34)ccc12 |
| 5 | Oc1ccc(Cl)cc1CNc1ccc(Cl)cc1 |
| > 250 | Nc1ccncn1 |
| 0.05 | Cc1c(O)cc(O)c2c1C(=O)OC[C@H](NC(=O)[C@@H]1[C@H](O)CCN1C(=O)[C@@H](N)CO)C(=O)N[C@H](C(=O)N[C@@H](C)C(=O)O)CSC2 |

| Compound | MNEC [µg/mL] |
| --- | --- |
| N#Cc1cnc(S)nc1N | 16 |
| Nc1ncccn1 | > 250 |
| Nc1ncncn1 | > 250 |
| Nc1ccccn1 | > 250 |

Tested on: Nucleic Acid
Assay: Maximal noneffective concentration (MNEC) for inhibition of DNA gyrase
Format: nucleic-acid assay

| Compound | MNEC [µg/mL] |
| --- | --- |
| c1ccc2[nH]ncc2c1 | > 250 |

Tested on: not listed separately
Assay: Dissociation constant determined by heteronuclear 1H/15N correlation NMR spectroscopy
Format: physicochemical

| Compound | Kd [mM] |
| --- | --- |
| Nc1ncccn1 | 60 |
| Nc1ncncn1 | 60 |
